# Data reported in paper PMC13077603, “Fluorine‐18‐Labeled Nucleotide Analogs Targeting Ecto‐5'‐Nucleotidase (CD73) for Positron Emission Tomography Imaging of Solid Tumors” (Angewandte Chemie (International Ed. in English), 2026).
# Where “and” joins values, the source holds several entries; their conditions need not be identical. Equal values may be shown once. Read-outs that look alike come from different tables or passages of the source.
# What was measured:
# [1] = target: T1, CD73 in human breast cancer samples (Homo sapiens, UniProt P21589); assay: Autoradiography on human breast tumor and sentinel lymph node cryosections; assay type: binding; details: ∼1000‐fold excess of blocker with radiotracer
# T1 construct: cryosections of breast tumor samples as well as sentinel lymph node samples were investigated; from tissue; host or cells: primary breast tumors and sentinel lymph nodes of two patients, 6 µm cryosections
# T1 sequence (P21589 27-574): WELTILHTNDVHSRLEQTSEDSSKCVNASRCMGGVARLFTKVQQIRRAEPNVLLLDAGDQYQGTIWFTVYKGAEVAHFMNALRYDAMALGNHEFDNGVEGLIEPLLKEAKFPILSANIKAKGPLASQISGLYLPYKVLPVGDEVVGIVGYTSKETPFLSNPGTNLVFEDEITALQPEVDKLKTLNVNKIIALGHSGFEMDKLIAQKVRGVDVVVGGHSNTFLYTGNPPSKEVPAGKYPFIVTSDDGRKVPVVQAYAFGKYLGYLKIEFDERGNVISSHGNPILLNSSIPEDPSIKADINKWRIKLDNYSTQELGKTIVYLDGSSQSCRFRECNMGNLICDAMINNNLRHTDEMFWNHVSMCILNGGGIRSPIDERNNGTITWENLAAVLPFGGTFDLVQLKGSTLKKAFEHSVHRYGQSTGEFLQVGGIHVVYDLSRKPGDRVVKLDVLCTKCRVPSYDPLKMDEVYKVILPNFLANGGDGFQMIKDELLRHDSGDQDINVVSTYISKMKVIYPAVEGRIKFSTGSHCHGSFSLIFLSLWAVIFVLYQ
# Experimental: To test specific radiotracer binding to its target, we performed in situ autoradiography. [^18F]2 was applied onto cryosections of neighboring slides of tumor tissues from primary breast tumors from patient X (Figure 4A) and patient Y (Figure 4B), used for immunohistochemistry and AMPase activity determination. Sentinel LN from patient Y was incubated with [^18F]1 (Figure 4C).
# FIGURE 4 Autoradiographic imaging of ^18F‐labeled CD73 tracer binding to tissue samples of breast tumors and sentinel lymph nodes. Primary breast tumor (A, B) and LN cryosections (C) were incubated with [^18F]2 or [^18F]1 in the absence (control) and in the presence of an unlabeled CD73 inhibitor, AMPCP (13) or JMS04‐14 (14), as indicated. The samples were processed for autoradiographic analysis, as described in the materials and methods section. The white dotted lines outline the tissue boundaries. (D). Structures of CD73 inhibitors applied as blockers in this study.
# For the assessment of ^18F-labeled CD73 tracer binding to human tissues, cryosections of breast tumor samples as well as sentinel lymph node samples were investigated. Cryosections were thawed and pre-incubated for 15 min at room temperature in 2-[4-(2-hydroxyethyl)piperazin-1-yl]ethanesulfonic acid buffer (HEPES). […] Blocking compounds were prepared according to the molar activity of the radiolabeled tracers [^18F]MRS-4648 and [^18F]PSB-19427 aiming at a 1000-fold excess of the blocking agent. For each tissue sample, neighboring sections were incubated for 20 min at room temperature with a mixture of 50µL of the radiotracer and 50µL of the classical CD73 inhibitor AMPCP (25 nmol, in PBS), or JMS0414 (61 nmol, in HEPES), or HEPES buffer respectively. After incubation, slides were washed three times with PBS and Aqua bidest, mounted on a slide holder for the image acquisition, and covered with protection and scintillation foils. Digital autoradiography measurement of each slide was performed for 60 minutes (Micro Imager, Biospace, France). Acquired data were corrected for radioactive decay in reference to the start of the acquisition as well as the start of the incubation.
# [2] = target: T2, CD73 (cell membrane preparations of MDA-MB-231 cells) (Homo sapiens, UniProt P21589); assay: Kinetic rate index radioligand binding assay, estimation of residence time
# T2 construct: endogenous in cells; host or cells: MDA-MB-231 (human triple-negative breast cancer) membrane preparation
# T2 sequence (P21589 27-574): T1 sequence (P21589 27-574)
# Description: Besides affinity, binding kinetics play a crucial role in determining in vivo tracer performance. The clinical CD73 inhibitor Quemliclustat has been reported to display a very long residence time. We therefore determined the kinetic rate index (KRI) of selected CD73 inhibitors using a radioligand binding assay. […] These comparatively long residence times indicate slow dissociation from the target, which may contribute to the sustained tumor retention of [^18F]1 observed in vivo. Another effect that might play a role is pharmacological inhibition of CD73 by the high concentration of the CD73 inhibitor used for blocking. This will lead to a strong reduction in adenosine concentrations, for example, in blood vessels and other tissues, which may change hemodynamics and drug distribution. […]
# Cell membrane preparations of MDA-MB-231 cells were performed as previously described.^[9^] A dual point competition assay (at 20 min and 90 min) using [^3H]PSB-17230 was employed for the determination of kinetic rate index (KRI) in analogy to a published procedure,^[60^] determined at 25°C. The residence times were calculated by linear correlation based on a large database of previously determined KRI values and residence times of analogs.
# MDA‐MB‐231 tumor = assay: PET imaging in MDA-MB-231 breast cancer xenograft model; assay type: in vivo, NSG mice; details: MDA‐MB‐231 model
# Experimental: Given the specificity of [^18F]1 and [^18F]2 and the promising in vivo biodistribution profile of [^18F]1, we established a small‐animal human breast tumor xenograft model in NSG mice subcutaneously implanted with MDA‐MB‐231 cells. […] For blocking studies, PSB‐12651 (15, Figure 6) or unlabeled 1 were used.
# FIGURE 6 PET imaging data in an MDA‐MB‐231 tumor mouse model. (A). PET images, CT scans, and merged images of [^18F]2 in the MDA‐MB‐231 tumor mouse model 90 min after tracer injection. White arrows mark the tumor positions. (B). Quantitative PET analysis of [^18F]2 uptake: activity concentration of [^18F]2 in muscle and tumor tissues 90 min after tracer injection (left) and respective tumor‐to‐muscle ratio (right, n = 5 tumors). (C). PET‐CT images of [^18F]1 and [^18F]FDG in the MDA‐MB‐231 tumor mouse model, 260 min ([^18F]1), or 75 min ([^18F]FDG) after injection. […] White arrows mark the positions of tumors. (D). Quantitative PET analysis of [^18F]1 uptake: activity concentration of [^18F]1 and [^18F]FDG in muscle and tumor tissues (left) and tumor‐to‐muscle ratios (right) after 260 min. [^18F]1: n = 18 tumors, [^18F]1 plus unlabeled 1 block: n = 8 tumors, [^18F]1 plus compound 15 block: n = 6 tumors, [^18F]FDG: n = 18 tumors E. Ex vivo analysis of [^18F]1 uptake as measured by gamma counter: activity concentrations of [^18F]1 in muscle and tumor tissues after 260 min without and with blocking (left) and tumor‐to‐muscle ratios (right). [^18F]1: n = 6 tumors, [^18F]1 plus unlabeled 1 block: n = 6 tumors, [^18F]1 plus compound 15 block: n = 5 tumors.^# relative to the respective muscle, *relative to [^18F]1 without blocker, relative to the unblocked tumor; *<0.05; **<0.01, ***<0.001,^#<0.05; ^## <0.01, ^###<0.001, <0.05; <0.01, <0.001, ns: non‐significant, unpaired t‐test.
# MDA-MB-231 cells were cultivated in DMEM/GlutaMAX, supplemented with 10 % fetal calf serum, 100 U/mL penicillin, and 100 µg/mL streptomycin and L-glutamine to a final concentration of 8 mmol/L. AsPC-1 cells were cultivated in RPMI, supplemented with 10 % fetal calf serum, 100 U/mL penicillin, and 100 µg/mL streptomycin and L-glutamine to a final concentration of 8 mmol/L. 5 x 10^6 MDA-MB-231 or 1x 10^6 AsPC-1 cells were injected subcutaneously into the shoulder region of 7 to 12 weeks old NSG (NOD.Cg-Prkdc^scid Il2rg^tm1Wjl/SzJ) mice (Charles River Laboratories). Two tumors were inoculated per animal, and growth was followed by digital caliper measurements (volume = ½ (length * width^2)).
# Adult C57bl/6 (biodistribution study, 19.8±1.3 g) or tumor-bearing NSG mice (22.2±2.2 g) were anesthetized by isoflurane/O2, and one lateral tail vein was cannulated using a 27 G needle. A respective radiotracer (~ 390 kBq/g body weight) was injected as a bolus via the tail vein, and subsequent PET scanning was performed. A ~1000-fold excess of unlabeled JMS0414 (14 for [^18F]MRS-4648 ([^18F]2)), unlabeled PSB-19427 (1), or PSB-12651 (15) (for [^18F]PSB-19427 ([^18F]1)) was injected into a subgroup of tumor-bearing mice 10 min before radiotracer injection in the blocking studies. PET imaging studies were carried out using a submillimeter high resolution (0.7 mm full width at half-maximum) small animal scanner (32 module quadHIDAC, Oxford Positron Systems Ltd., Oxford, UK) with a uniform spatial resolution (<1 mm) over a large cylindrical field (165 mm diameter, 280 mm axial length). […]
structure (smiles),measurement,setting,value
"Nc1ncnc2c1ncn2[C@@H]1O[C@H](COP(=O)(O)CP(=O)(O)O)[C@@H](O)[C@H]1O [AMPCP, reference compound]",Effect of co-incubated blocker on tissue-associated radioactivity,[1],markedly reduced
same,residence time,[2],8.8 min
"Cn1c(=O)n([C@@H]2O[C@H](COP(=O)(O)CP(=O)(O)O)[C@@H](O)[C@H]2O)cc/c1=N/OCc1ccccc1 [JMS04-14, reference compound]",Effect of co-incubated blocker on tissue-associated radioactivity,[1],markedly reduced
"O=P(O)(O)CP(=O)(O)OC[C@H]1O[C@@H](n2cnc3c(NCc4ccccc4)nc(Cl)nc32)[C@H](O)[C@@H]1O [PSB-12651, reference compound]",Effect of blocker pre-treatment on tumor-to-muscle ratio of [18F]1,MDA‐MB‐231 tumor; ~1000-fold excess injected 10 min before tracer,markedly reduced
same,residence time,"[2]; estimated from kinetic rate index, [3H]PSB-17230, 25 °C, read-out: Residence time",31 min
"O=C[C@H]([18F])[C@@H](O)[C@H](O)[C@H](O)CO [[^18F]FDG, 2‐deoxy‐2‐[^18F]fluoro‐D‐glucose, reference compound]",Tumor-to-muscle ratio,"MDA‐MB‐231 tumor; [18F]FDG PET, 75 min after injection",2.04 ± 1.0 and 2.04
